The target in this assay is HCV RdRp (NS5B) (UniProt P26663). Type of assay: biochemical, hepatitis C virus.
Sequence of HCV RdRp (NS5B) (P26663 whole entry, looked up): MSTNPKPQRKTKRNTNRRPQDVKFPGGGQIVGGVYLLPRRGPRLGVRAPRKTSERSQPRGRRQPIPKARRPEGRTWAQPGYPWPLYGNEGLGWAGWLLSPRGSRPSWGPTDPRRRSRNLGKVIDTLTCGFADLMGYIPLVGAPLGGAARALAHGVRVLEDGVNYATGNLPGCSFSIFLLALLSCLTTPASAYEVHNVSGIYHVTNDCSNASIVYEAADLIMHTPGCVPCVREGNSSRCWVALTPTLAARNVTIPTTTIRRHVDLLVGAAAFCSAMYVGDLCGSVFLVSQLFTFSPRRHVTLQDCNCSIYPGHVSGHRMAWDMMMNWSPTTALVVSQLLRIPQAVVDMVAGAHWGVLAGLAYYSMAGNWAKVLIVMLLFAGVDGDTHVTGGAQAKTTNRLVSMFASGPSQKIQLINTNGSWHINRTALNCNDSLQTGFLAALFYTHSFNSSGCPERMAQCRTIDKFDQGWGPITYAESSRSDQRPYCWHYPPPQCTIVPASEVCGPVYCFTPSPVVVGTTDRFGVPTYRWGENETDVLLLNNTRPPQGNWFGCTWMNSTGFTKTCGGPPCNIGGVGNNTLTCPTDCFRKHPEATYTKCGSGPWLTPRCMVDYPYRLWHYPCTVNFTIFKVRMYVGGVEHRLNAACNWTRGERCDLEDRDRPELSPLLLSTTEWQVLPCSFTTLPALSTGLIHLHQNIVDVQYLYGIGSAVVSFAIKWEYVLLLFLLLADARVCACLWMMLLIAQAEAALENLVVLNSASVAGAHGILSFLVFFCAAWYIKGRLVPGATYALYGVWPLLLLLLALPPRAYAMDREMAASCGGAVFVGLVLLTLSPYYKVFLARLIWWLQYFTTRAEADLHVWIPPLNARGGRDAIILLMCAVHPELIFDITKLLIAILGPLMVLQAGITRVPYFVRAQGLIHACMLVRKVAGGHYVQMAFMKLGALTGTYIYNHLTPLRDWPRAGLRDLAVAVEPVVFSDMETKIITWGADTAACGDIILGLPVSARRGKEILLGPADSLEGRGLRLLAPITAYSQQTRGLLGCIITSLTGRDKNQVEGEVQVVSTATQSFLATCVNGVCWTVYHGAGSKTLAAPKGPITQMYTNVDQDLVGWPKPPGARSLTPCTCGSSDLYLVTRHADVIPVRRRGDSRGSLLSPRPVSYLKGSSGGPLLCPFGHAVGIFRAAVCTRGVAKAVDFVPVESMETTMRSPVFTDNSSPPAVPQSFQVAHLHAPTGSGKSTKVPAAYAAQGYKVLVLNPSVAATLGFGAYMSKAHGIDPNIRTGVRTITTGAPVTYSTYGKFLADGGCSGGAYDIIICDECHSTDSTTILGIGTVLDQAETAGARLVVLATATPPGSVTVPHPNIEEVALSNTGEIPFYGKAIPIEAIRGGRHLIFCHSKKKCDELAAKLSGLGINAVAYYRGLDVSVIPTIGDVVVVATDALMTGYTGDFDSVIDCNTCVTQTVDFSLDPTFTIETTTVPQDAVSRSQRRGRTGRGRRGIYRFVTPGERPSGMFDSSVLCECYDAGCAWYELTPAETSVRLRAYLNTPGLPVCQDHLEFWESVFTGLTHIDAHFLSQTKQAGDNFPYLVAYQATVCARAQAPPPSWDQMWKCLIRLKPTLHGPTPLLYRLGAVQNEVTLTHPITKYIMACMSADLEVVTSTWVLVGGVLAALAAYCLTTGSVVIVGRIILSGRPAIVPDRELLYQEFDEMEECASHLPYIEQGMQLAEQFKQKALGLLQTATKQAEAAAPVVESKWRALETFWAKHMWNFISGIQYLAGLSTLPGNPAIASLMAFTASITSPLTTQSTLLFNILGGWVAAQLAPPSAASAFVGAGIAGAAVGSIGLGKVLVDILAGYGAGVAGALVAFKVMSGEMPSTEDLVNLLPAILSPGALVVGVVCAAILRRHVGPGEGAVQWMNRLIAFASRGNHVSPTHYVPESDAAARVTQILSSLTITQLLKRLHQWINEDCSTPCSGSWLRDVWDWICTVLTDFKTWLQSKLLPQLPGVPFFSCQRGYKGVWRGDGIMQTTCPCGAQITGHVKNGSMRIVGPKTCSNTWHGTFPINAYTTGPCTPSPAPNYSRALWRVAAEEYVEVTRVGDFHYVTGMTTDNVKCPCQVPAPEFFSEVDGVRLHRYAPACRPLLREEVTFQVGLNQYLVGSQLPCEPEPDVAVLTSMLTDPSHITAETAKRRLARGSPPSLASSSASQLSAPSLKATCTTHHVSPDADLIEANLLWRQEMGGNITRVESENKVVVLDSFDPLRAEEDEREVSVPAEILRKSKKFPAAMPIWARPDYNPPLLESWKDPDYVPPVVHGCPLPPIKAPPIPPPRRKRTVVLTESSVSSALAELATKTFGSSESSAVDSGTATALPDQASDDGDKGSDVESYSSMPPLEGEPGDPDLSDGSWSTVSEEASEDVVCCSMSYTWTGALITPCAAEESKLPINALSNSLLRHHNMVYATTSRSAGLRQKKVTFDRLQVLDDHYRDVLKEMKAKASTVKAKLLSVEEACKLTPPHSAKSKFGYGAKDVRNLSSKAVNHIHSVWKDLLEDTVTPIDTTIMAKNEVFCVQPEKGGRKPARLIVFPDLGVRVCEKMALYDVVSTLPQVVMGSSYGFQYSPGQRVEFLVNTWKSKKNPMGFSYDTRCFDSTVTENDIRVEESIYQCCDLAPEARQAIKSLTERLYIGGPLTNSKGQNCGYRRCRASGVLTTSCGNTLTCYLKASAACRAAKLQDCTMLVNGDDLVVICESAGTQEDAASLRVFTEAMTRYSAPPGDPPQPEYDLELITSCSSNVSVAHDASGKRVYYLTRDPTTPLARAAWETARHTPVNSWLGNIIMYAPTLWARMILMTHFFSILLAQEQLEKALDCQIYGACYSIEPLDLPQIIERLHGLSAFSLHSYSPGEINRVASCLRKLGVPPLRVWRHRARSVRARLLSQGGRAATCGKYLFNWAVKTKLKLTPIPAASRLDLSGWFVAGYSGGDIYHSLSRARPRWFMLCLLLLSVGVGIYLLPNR
By IC50 is commonly meant the concentration that gives 50% inhibition. A low value points to inhibition by little substance. The compound `NCCCC[C@H](NC(=O)Nc1cccc2ccccc12)C(=O)Nc1ccc(CN(C(=O)c2ccco2)C2CCCCC2)cc1` [Compound 31, (S)-FURAN-2-CARBOXYLIC ACID {4-[6-AMINO-2-(3-NAPHTHALEN-1-YL-UREIDO)-HEXANOYLAMINO]-BENZYL}-CYCLOHEXYL-AMIDE] gave an IC50 of 10 to 50 µM. The compound `NCCCC[C@@H](NC(=O)Nc1cccc2ccccc12)C(=O)Nc1ccc(CN(C(=O)c2ccco2)C2CCCCC2)cc1` [Compound 32, (R)-FURAN-2-CARBOXYLIC ACID {4-[6-AMINO-2-(3-NAPHTHALEN-1-YL-UREIDO)-HEXANOYLAMINO]-BENZYL}-CYCLOHEXYL-AMIDE] came in with an IC50 above 50 µM. Regarding `NCCCC[C@H](NC(=O)OCC1c2ccccc2-c2ccccc21)C(=O)N(Cc1ccccc1)C1CCCCC1` [Compound 33, (S)-[5-AMINO-1-(BENZYL-CYCLOHEXYL-CARBAMOYL)-PENTYL]-CARBAMIC ACID 9H-FLUOREN-9-YLMETHYL ESTER], the IC50 was 10 to 50 µM. Then `CC(C)(C)OC(=O)NCCCC[C@H](N)C(=O)N(Cc1ccccc1)C1CCCCC1` [Compound 34, (S)-[5-AMINO-5-(BENZYL-CYCLOHEXYL-CARBAMOYL)-PENTYL]-CARBAMIC ACID TERT-BUTYL ESTER], with 10 to 50 µM; and `N[C@@H](Cc1c[nH]c2ccccc12)C(=O)NCCCC[C@H](NC(=O)OCC1c2ccccc2-c2ccccc21)C(=O)Nc1ccc(CN(C(=O)c2ccco2)C2CCCCC2)cc1` [Compound 35, (S)-[5-[2-(S)-AMINO-3-(1H-INDOL-3-YL)-PROPIONYLAMINO]-1-(4-{[CYCLOHEXYL-(FURAN-2-CARBONYL)-AMINO]-METHYL}-PHENYLCARBAMOYL)-PENTYL]-CARBAMIC ACID 9H-FLUOREN-9-YLMETHYL ESTER], with below 10 µM; and `Cc1ccc(NC(=O)C(CCCCN)NC(=O)OCC2c3ccccc3-c3ccccc32)cc1` [Compound 36, (R)-(5-AMINO-1-P-TOLYLCARBAMOYL-PENTYL)-CARBAMIC ACID 9H-FLUOREN-9-YLMETHYL ESTER], with 10 to 50 µM. Turning to `CCCC[C@H](NC(=O)OCC1c2ccccc2-c2ccccc21)C(=O)Nc1ccc(CN(C(=O)c2ccco2)C2CCCCC2)cc1` [Compound 37, (S)-[1-(4-{[CYCLOHEXYL-(FURAN-2-CARBONYL)-AMINO]-METHYL}-PHENYLCARBAMOYL)-PENTYL]-CARBAMIC ACID 9H-FLUOREN-9-YLMETHYL ESTER], the IC50 was above 50 µM.

For the compound `Cc1cc2cc(NC(=O)C(CCCCN)NC(=O)OCC3c4ccccc4-c4ccccc43)ccc2[nH]1` [Compound 38, (S)-[5-AMINO-1-(2-METHYL-1H-INDOL-5-YLCARBAMOYL)-PENTYL]-CARBAMIC ACID 9H-FLUOREN-9-YL METHYL ESTER], the IC50 is 10 to 50 µM. To `CC(C)(NC(=O)OCC1c2ccccc2-c2ccccc21)C(=O)Nc1ccc(C=CC(=O)O)cc1` [Compound 39, 3-{4-[2-((9H-FLUOREN-9-YLMETHOXYCARBONYL)AMINO)-2-METHYL-PROPIONYLAMINO]-PHENYL}-ACRYLIC ACID] belongs above 50 µM. Then `Cc1ccc(NC(=O)C(CCCCN)NC(=O)Nc2ccc(-c3ccccc3)cc2)cc1` [Compound 40, (S)-6-AMINO-2-(3-BIPHENYL-4-YL-UREIDO)-HEXANOIC ACID P-TOLYLAMIDE], with 10 to 50 µM; and `Cc1ccc(NC(=O)[C@H](CCCCN)NC(=O)Nc2ccc(Oc3ccccc3)cc2)cc1` [Compound 41, (S)-6-AMINO-2-[3-(4-PHENOXY-PHENYL)-UREIDO]-HEXANOIC ACID P-TOLYLAMIDE], with above 50 µM; and `Cc1ccc(NC(=O)C(CCCCN)NC(=O)Nc2ccc(C(F)(F)F)cc2)cc1` [Compound 42, (S)-6-AMINO-2-[3-(4-TRIFLUOROMETHYL-PHENYL)-UREIDO]-HEXANOIC ACID P-TOLYLAMIDE], with 10 to 50 µM.

In turn, `Cc1ccc(NC(=O)[C@H](CCCCN)NC(=O)Nc2ccc(F)cc2)cc1` [Compound 43, (S)-6-AMINO-2-[3-(4-FLUORO-PHENYL)-UREIDO]-HEXANOIC ACID P-TOLYLAMIDE] yielded an IC50 above 50 µM. For the compound `NCCCC[C@H](NC(=O)OCC1c2ccccc2-c2ccccc21)C(=O)Nc1ccc(F)cc1` [Compound 44, (S)-[5-AMINO-1-(4-FLUORO-PHENYLCARBAMOYL)-PENTYL]-CARBAMIC ACID 9H-FLUOREN-9-YLMETHYL ESTER], the IC50 was above 50 µM. Then `Cc1ccccc1NC(=O)C(CCCCN)NC(=O)OCC1c2ccccc2-c2ccccc21` [Compound 45, (S)-(5-AMINO-1-O-TOLYLCARBAMOYL-PENTYL)-CARBAMIC ACID 9H-FLUOREN-9-YLMETHYL ESTER], with above 50 µM; and `NCCCC[C@H](NC(=O)Cn1cnc2c(NC(=O)c3ccccc3)ncnc21)C(=O)Nc1ccc(CN(C(=O)c2ccco2)C2CCCCC2)cc1` [Compound 46, (S)-FURAN-2-CARBOXYLIC ACID (4-{6-AMINO-2-[2-(6-BENZOYLAMINO-PURIN-9-YL)-ACETYLAMINO]-HEXANOYLAMINO}-BENZYL)-CYCLOHEXYL-AMIDE], with 10 to 50 µM. Then `Cc1cccc(NC(=O)[C@H](CCCCN)NC(=O)OCC2c3ccccc3-c3ccccc32)c1` [Compound 47, (S)-(5-AMINO-1-M-TOLYLCARBAMOYL-PENTYL)-CARBAMIC ACID 9H-FLUOREN-9-YLMETHYL ESTER], with above 50 µM.

Turning to `Cc1ccc(NC(=O)C(CCCCN)NC(=O)Cc2ccc3ccccc3c2)cc1` [Compound 48, (S)-6-AMINO-2-(2-NAPHTHALEN-2-YL-ACETYLAMINO)-HEXANOIC ACID P-TOLYLAMIDE], the IC50 was above 50 µM.

`O=C(N[C@@H](Cc1c[nH]c2ccccc12)C(=O)N(Cc1ccccc1)C1CCCCC1)OCC1c2ccccc2-c2ccccc21` [Compound 49, (S)-[1-(BENZYL-CYCLOHEXYL-CARBAMOYL)-2-(1H-INDOL-3-YL)-ETHYL]-CARBAMIC ACID 9H-FLUOREN-9-YLMETHYL ESTER] displayed an IC50 above 50 µM.

In the case of `Cc1ccc(NC(=O)C(CCCCN)NC(=O)Cc2ccc(-c3ccccc3)cc2)cc1` [Compound 50, (S)-6-AMINO-2-(2-BIPHENYL-4-YL-ACETYLAMINO)-HEXANOIC ACID P-TOLYLAMIDE], the IC50 was above 50 µM.

Compound `Cc1ccc(NC(=O)C(CCCCN)NC(=O)c2ccc3ccccc3c2)cc1` [Compound 51, (S)-NAPHTHALENE-2-CARBOXYLIC ACID (5-AMINO-1-P-TOLYLCARBAMOYL-PENTYL)-AMIDE] displayed an IC50 above 50 µM.

Regarding `Cc1ccc(NC(=O)C(CCCCN)NC(=O)C2c3ccccc3-c3ccccc32)cc1` [Compound 52, (S)-9H-FLUORENE-9-CARBOXYLIC ACID (5-AMINO-1-P-TOLYLCARBAMOYL-PENTYL)-AMIDE], the IC50 is above 50 µM. Then `Cc1ccc(NC(=O)C(CCCCN)NC(=O)CC2c3ccccc3-c3ccccc32)cc1` [Compound 53, (S)-6-AMINO-2-(2-9H-FLUOREN-9-YL-ACETYLAMINO)-HEXANOIC ACID P-TOLYLAMIDE], with above 50 µM; and `Cc1ccc(NC(=O)C(CCCCN)NC(=O)c2ccccc2-c2ccccc2)cc1` [Compound 54, (S)-BIPHENYL-2-CARBOXYLIC ACID (5-AMINO-1-P-TOLYLCARBAMOYL-PENTYL)-AMIDE], with above 50 µM. Then `CC(C)(C)OC(=O)NCCCC[C@H](NC(=O)OCC1c2ccccc2-c2ccccc21)C(=O)NCCc1c[nH]c2ccccc12` [Compound 56, (S)-{5-((9H-FLUOREN-9-YLMETHOXYCARBONYL)AMINO)-5-[2-(1H-INDOL-3-YL)-ETHYLCARBAMOYL]-PENTYL}-CARBAMIC ACID TERT-BUTYL ESTER], with above 50 µM.

Regarding `NCCCC[C@H](NC(=O)OCC1c2ccccc2-c2ccccc21)C(=O)NCCc1c[nH]c2ccccc12` [Compound 57, (S)-{5-AMINO-1-[2-(1H-INDOL-3-YL)-ETHYLCARBAMOYL]-PENTYL}-CARBAMIC ACID 9H-FLUOREN-9-YLMETHYL ESTER], the IC50 is above 50 µM. Then `COC(=O)[C@H](Cc1c[nH]c2ccccc12)NC(=O)C(CCCCN)NC(=O)OCC1c2ccccc2-c2ccccc21` (stereo partly drawn) [Compound 58, (S)-2-[6-AMINO-2-((9H-FLUOREN-9-YLMETHOXYCARBONYL)AMINO)-HEXANOYL-(R)-AMINO]-3-(1H-INDOL-3-YL)-PROPIONIC ACID METHYL ESTER], with above 50 µM. To `CCOC(=O)C=Cc1ccc(NC(=O)[C@H](CCCCN)NC(=O)OCC2c3ccccc3-c3ccccc32)cc1` [Compound 59, (S)-3-{4-[6-AMINO-2-((9H-FLUOREN-9-YLMETHOXYCARBONYL)AMINO)-HEXANOYLAMINO]PHENYL}-ACRYLIC ACID ETHYL ESTER] belongs 10 to 50 µM. The compound `Cc1ccc(NC(=O)C(CCCCN)NC(=O)C(N)Cc2cccc3ccccc23)cc1` [Compound 60, (S,S)-6-AMINO-2-(2-AMINO-3-NAPHTHALEN-1-YL-PROPIONYLAMINO)-HEXANOIC ACID P-TOLYLAMIDE] displayed an IC50 above 50 µM.

In turn, `Cc1ccc(NC(=O)C(CCCCN)NC(=O)C(N)Cc2cccc3ccccc23)cc1` [Compound 61, (S,R)-6-AMINO-2-(2-AMINO-3-NAPHTHALEN-1-YL-PROPIONYLAMINO)-HEXANOIC ACID P-TOLYLAMIDE] gave an IC50 above 50 µM. Then `Cc1ccc(NC(=O)C(CCCCN)NC(=O)c2ccc(C)c3ccccc23)cc1` [Compound 62, (S)-4-METHYL-NAPHTHALENE-1-CARBOXYLIC ACID (5-AMINO-1-P-TOLYLCARBAMOYL-PENTYL)-AMIDE], with above 50 µM; and `Cc1ccc(NC(=O)C(CCCCN)NC(=O)c2c(C)ccc3ccccc23)cc1` [Compound 63, (S)-2-METHYL-NAPHTHALENE-1-CARBOXYLIC ACID (5-AMINO-1-P-TOLYLCARBAMOYL-PENTYL)-AMIDE], with above 50 µM; and `Cc1ccc(NC(=O)C(CCCCN)NC(=O)c2ccc(F)c3ccccc23)cc1` [Compound 64, (S)-4-FLUORO-NAPHTHALENE-1-CARBOXYLIC ACID (5-AMINO-1-P-TOLYLCARBAMOYL-PENTYL)-AMIDE], with above 50 µM.

`COc1cc2ccccc2cc1C(=O)NC(CCCCN)C(=O)Nc1ccc(C)cc1` [Compound 65, (S)-3-METHOXY-NAPHTHALENE-2-CARBOXYLIC ACID (5-AMINO-1-P-TOLYLCARBAMOYL-PENTYL)-AMIDE] came in with an IC50 above 50 µM. Then `COc1ccc2cc(C(=O)NC(CCCCN)C(=O)Nc3ccc(C)cc3)ccc2c1` [Compound 66, (S)-6-METHOXY-NAPHTHALENE-2-CARBOXYLIC ACID (5-AMINO-1-P-TOLYLCARBAMOYL-PENTYL)-AMIDE], with above 50 µM.

The record behind these values is US20070021434A1, “NON-NUCLEOSIDE ANTI-HEPACIVIRUS AGENTS AND USES THEREOF” (Migenix Inc., priority 2005, published 2007).
